Assay: Antagonist activity at human P2Y12 receptor assessed as inhibition of ADP-induced platelet-rich plasma aggregation by turbidimetric method

Row | SMILES | IC50 [µM]
1 | CCOC(=O)N1CCN(C(=O)[C@H](CCC(=O)O)NC(=O)c2cc(OCCOC)cc(-c3ccccc3)n2)CC1 [(S)-5-(4-(ethoxycarbonyl)piperazin-1-yl)-4-(4-(2-methoxyethoxy)-6-phenylpicolinamido)-5-oxopentanoic acid] | 5.8
2 | CCCOC(=O)N1CCN(C(=O)[C@H](CCC(=O)O)NC(=O)c2cccc(-c3ccccc3)n2)CC1 [(4S)5-Oxo-4-{[(6-phenylpyridin-2-yl)carbonyl]amino}-5-[4-(propoxycarbonyl)iperazin-1-yl]pentanoic Acid] | 62
3 | CCCCOC(=O)N1CCN(C(=O)[C@H](CCC(=O)O)NC(=O)c2cccc(-c3ccccc3)n2)CC1 [(S)-5-(4-(butoxycarbonyl)piperazin-1-yl)-5-oxo-4-(6-phenylpicolinamido)pentanoic acid] | 28
4 | CCCNc1cc(C(=O)N[C@@H](CCC(=O)O)C(=O)N2CCN(C(=O)OCC)CC2)nc(-c2ccccc2)c1 [(S)-5-(4-(ethoxycarbonyl)piperazin-1-yl)-5-oxo-4-(6-phenyl-4-(propylamino)picolinamido)pentanoic acid] | 28
5 | C=CCOC(=O)N1CCN(C(=O)[C@H](CCC(=O)O)NC(=O)c2cc(OCCCC)cc(-c3ccccc3)n2)CC1 [(S)-5-(4-(allyloxycarbonyl)piperazin-1-yl)-4-(4-butoxy-6-phenylpicolinamido)-5-oxopentanoic acid] | 61.7
6 | CCCCCCCCOC(=O)N1CCN(C(=O)[C@H](CCC(=O)O)NC(=O)c2cccc(-c3ccccc3)n2)CC1 [(4S)5-{4-[(Octyloxy)carbonyl]piperazin-1-yl}-5-oxo-4-{[(6-phenylpyridin-2-yl)carbonyl]amino}pentanoic Acid] | > 100
7 | CCCCCOC(=O)N1CCN(C(=O)[C@H](CCC(=O)O)NC(=O)c2cc(OC3CCNCC3)cc(-c3ccccc3)n2)CC1 [(4S)5-Oxo-5-{4-[(pentyloxy)carbonyl]piperazin-1-yl}-4-({[6-phenyl-4-(piperidin-4-yloxy)yridin-2-yl]carbonyl}amino)entanoicAcid] | 0.55
8 | CCCCCOC(=O)N1CCN(C(=O)[C@H](CCC(=O)O)NC(=O)c2cc(N3CCC(COC)CC3)cc(-c3ccccc3)n2)CC1 [(4S)4-[({4-[4-(Methoxymethyl)piperidin-1-yl]-6-phenylpyridin-2-yl}carbonyl)amino]-5-oxo-5-{4-[(pentyloxy)carbonyl]piperazin-1-yl}pentanoic Acid] | 3.9
9 | CCCCCOC(=O)N1CCN(C(=O)[C@H](CCC(=O)O)NC(=O)c2cc(N3CCC(CN)CC3)cc(-c3ccccc3)n2)CC1 [(4S)4-[({4-[4-(Aminomethyl)piperidin-1-yl]-6-phenylpyridin-2-yl}carbonyl)amino]-5-oxo-5-{4-[(pentyloxy)carbonyl]piperazin-1-yl}pentanoic Acid] | 0.77
10 | CC(C)OC(=O)N1CCN(C(=O)[C@H](CCC(=O)O)NC(=O)c2cc(OCCO)cc(-c3ccccc3)n2)CC1 [(S)-4-(4-(2-hydroxyethoxy)-6-phenylpicolinamido)-5-(4-(isopropoxycarbonyl)piperazin-1-yl)-5-oxopentanoic acid] | 25.6
11 | CCOC(=O)N1CCN(C(=O)[C@H](CCC(=O)O)NC(=O)c2cc(NCCOC)cc(-c3ccccc3)n2)CC1 [(S)-5-(4-(ethoxycarbonyl)piperazin-1-yl)-4-(4-(2-methoxyethylamino)-6-phenylpicolinamido)-5-oxopentanoic acid] | 14
12 | CCOC(=O)N1CCN(C(=O)[C@H](CCC(=O)O)NC(=O)c2cc(OCCN)cc(-c3ccccc3)n2)CC1 [(4S)4-({[4-(2-Aminoethoxy)6-phenylpyridin-2-yl]carbonyl}-amino)5-[4-(ethoxycarbonyl)iperazin-1-yl]-5-oxopentanoicAcid] | 7.5
13 | CCOC(=O)N1CCN(C(=O)[C@H](CCC(=O)O)NC(=O)c2cc(N3CCC(N4CCCC4)CC3)cc(-c3ccccc3)n2)CC1 [(4S)5-[4-(Ethoxycarbonyl)piperazin-1-yl]-5-oxo-4-({[6-phenyl-4-(4-pyrrolidin-1-ylpiperidin-1-yl)pyridin-2-yl]carbonyl}amino)pentanoic Acid] | 2
14 | C=CCOC(=O)N1CCN(C(=O)[C@H](CCC(=O)O)NC(=O)c2cc(OC3CCNCC3)cc(-c3ccccc3)n2)CC1 [(S)-5-(4-(allyloxycarbonyl)piperazin-1-yl)-5-oxo-4-(6-phenyl-4-(piperidin-4-yloxy)picolinamido)pentanoic acid] | 9.4
15 | NCC1CCN(c2cc(C(=O)N[C@@H](CCC(=O)O)C(=O)N3CCN(C(=O)OCCC4CCCC4)CC3)nc(-c3ccccc3)c2)CC1 [(S)-4-(4-(4-(aminomethyl)piperidin-1-yl)-6-phenylpicolinamido)-5-(4-((2-cyclopentylethoxy)carbonyl)piperazin-1-yl)-5-oxopentanoic acid] | 14.1
16 | CCCCCOC(=O)N1CCN(C(=O)[C@H](CCC(=O)O)NC(=O)c2cc(OCCOC)cc(-c3ccccc3)n2)CC1 [(4S)4-({[4-(2-Methoxyethoxy)6-phenylpyridin-2-yl]carbonyl}amino)5-oxo-5-{4-[(pentyloxy)carbonyl]piperazin-1-yl}pentanoic Acid] | 4.3
17 | Cc1cccc(N2CCN(C(=O)[C@H](CCC(=O)O)NC(=O)c3cc(-c4ccccc4)cc(-c4ccccc4)n3)CC2)c1 [(S)-4-(4,6-diphenylpicolinamido)-5-oxo-5-(4-m-tolylpiperazin-1-yl)pentanoic acid] | > 100
18 | CCCCCCCOC(=O)N1CCN(C(=O)[C@H](CCC(=O)O)NC(=O)c2cccc(-c3ccccc3)n2)CC1 [(S)-5-(4-(heptyloxycarbonyl)piperazin-1-yl)-5-oxo-4-(6-phenylpicolinamido)pentanoic acid] | 56
19 | CCOC(=O)N1CCN(C(=O)[C@H](CCC(=O)O)NC(=O)c2cc(NCCN(C)C)cc(-c3ccccc3)n2)CC1 [(S)-4-(4-(2-(dimethylamino)ethylamino)-6-phenylpicolinamido)-5-(4-(ethoxycarbonyl)piperazin-1-yl)-5-oxopentanoic acid] | 36
20 | CN(CCS(C)(=O)=O)c1cc(C(=O)N[C@@H](CCC(=O)O)C(=O)N2CCN(C(=O)OCCC3CCCC3)CC2)nc(-c2ccccc2)c1 [(S)-5-(4-((2-cyclopentylethoxy)carbonyl)piperazin-1-yl)-4-(4-(methyl(2-(methylsulfonyl)ethyl)amino)-6-phenylpicolinamido)-5-oxopentanoic acid] | 17.5
21 | CCOC(=O)N1CCN(C(=O)[C@H](CCC(=O)O)NC(=O)c2cc(N3CCC(N)CC3)cc(-c3ccccc3)n2)CC1 [(S)-4-(4-(4-aminopiperidin-1-yl)-6-phenylpicolinamido)-5-(4-(ethoxycarbonyl)piperazin-1-yl)-5-oxopentanoic acid] | 2.8
22 | O=C(O)CC[C@H](NC(=O)c1cc(N2CCC(O)CC2)cc(-c2ccccc2)n1)C(=O)N1CCN(C(=O)OCCC2CCCC2)CC1 [(S)-5-(4-((2-cyclopentylethoxy)carbonyl)piperazin-1-yl)-4-(4-(4-hydroxypiperidin-1-yl)-6-phenylpicolinamido)-5-oxopentanoic acid] | 57.8
23 | CCOC(=O)N1CCN(C(=O)[C@H](CCC(=O)O)NC(=O)c2cc(OCCCN)cc(-c3ccccc3)n2)CC1 [(S)-4-(4-(3-aminopropoxy)-6-phenylpicolinamido)-5-(4-(ethoxycarbonyl)piperazin-1-yl)-5-oxopentanoic acid] | 3.8

— BindingDB's records for doi:10.1016/j.bmcl.2009.06.075 (Pfizer, 2009)
